Assay results reported in ChEMBL document CHEMBL4609983, “Pan-specific and partially selective dye-labeled peptidic inhibitors of the polycomb paralog proteins” (Bioorg Med Chem, 2020).
Non-standard residues stand in square brackets, D forms with d. Residues, ends and D or L forms follow the SMILES beside them. *: point of attachment. X1 = O=C(O)c1cc(NC(=S)*)ccc1-c1c2ccc(=O)cc-2oc2cc(O)ccc12; Lys(Me3) = C[N+](C)(C)CCCC[C@H](N)C(=O)O; Benzoyl(4-Br) = O=C(c1ccc(Br)cc1)*; Gly(cPent) = N[C@H](C(=O)O)C1CCCC1; Abu = CC[C@H](N)C(=O)O

Key:
[1] = target: T1, Chromobox protein homolog 8 (Homo sapiens, UniProt Q9HC52); assay: Binding affinity to CBX8 (unknown origin) assessed as dissociation constant by fluorescence polarization analysis
T1 sequence (Q9HC52 whole entry): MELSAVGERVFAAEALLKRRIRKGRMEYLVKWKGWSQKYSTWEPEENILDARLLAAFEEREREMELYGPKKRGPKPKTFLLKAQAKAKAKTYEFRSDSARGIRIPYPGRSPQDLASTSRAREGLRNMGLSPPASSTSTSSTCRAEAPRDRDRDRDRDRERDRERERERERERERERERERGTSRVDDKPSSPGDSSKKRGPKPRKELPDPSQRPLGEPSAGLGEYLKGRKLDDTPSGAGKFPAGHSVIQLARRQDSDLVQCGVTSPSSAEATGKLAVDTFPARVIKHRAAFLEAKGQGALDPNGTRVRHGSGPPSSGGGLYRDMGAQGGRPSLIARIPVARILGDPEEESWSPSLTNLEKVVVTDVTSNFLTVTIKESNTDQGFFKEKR

[2] = target: Chromobox protein homolog 1 (Homo sapiens, UniProt P83916); assay: Binding affinity to CBX1 (unknown origin) assessed as dissociation constant by fluorescence polarization analysis
Chain of Chromobox protein homolog 1 (P83916 whole entry): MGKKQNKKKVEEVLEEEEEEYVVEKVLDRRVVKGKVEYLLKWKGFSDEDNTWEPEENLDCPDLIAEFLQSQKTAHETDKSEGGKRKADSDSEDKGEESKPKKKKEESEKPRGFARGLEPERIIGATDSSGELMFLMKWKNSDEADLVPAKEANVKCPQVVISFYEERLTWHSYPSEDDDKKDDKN

[3] = target: T2, Chromobox protein homolog 2 (Homo sapiens, UniProt Q14781); assay: Binding affinity to CBX2 (unknown origin) assessed as dissociation constant by fluorescence polarization analysis
T2 sequence (Q14781 whole entry): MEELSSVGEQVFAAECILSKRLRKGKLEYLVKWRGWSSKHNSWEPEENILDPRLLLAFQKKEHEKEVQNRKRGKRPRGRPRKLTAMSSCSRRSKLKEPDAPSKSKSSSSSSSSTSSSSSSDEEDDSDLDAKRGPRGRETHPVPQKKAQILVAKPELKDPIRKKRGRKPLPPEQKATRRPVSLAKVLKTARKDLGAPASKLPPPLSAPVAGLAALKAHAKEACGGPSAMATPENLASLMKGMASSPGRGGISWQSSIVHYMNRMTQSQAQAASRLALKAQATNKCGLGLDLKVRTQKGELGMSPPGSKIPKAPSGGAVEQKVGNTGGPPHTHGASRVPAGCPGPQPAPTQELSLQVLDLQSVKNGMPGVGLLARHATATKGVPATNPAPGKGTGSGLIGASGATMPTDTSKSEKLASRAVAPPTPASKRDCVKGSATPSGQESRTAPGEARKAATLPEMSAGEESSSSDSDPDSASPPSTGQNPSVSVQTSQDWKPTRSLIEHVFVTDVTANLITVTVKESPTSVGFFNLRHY

[4] = target: T3, E3 SUMO-protein ligase CBX4 (Homo sapiens, UniProt O00257); assay: Binding affinity to CBX4 (unknown origin) assessed as dissociation constant by fluorescence polarization analysis
T3 sequence (O00257 whole entry): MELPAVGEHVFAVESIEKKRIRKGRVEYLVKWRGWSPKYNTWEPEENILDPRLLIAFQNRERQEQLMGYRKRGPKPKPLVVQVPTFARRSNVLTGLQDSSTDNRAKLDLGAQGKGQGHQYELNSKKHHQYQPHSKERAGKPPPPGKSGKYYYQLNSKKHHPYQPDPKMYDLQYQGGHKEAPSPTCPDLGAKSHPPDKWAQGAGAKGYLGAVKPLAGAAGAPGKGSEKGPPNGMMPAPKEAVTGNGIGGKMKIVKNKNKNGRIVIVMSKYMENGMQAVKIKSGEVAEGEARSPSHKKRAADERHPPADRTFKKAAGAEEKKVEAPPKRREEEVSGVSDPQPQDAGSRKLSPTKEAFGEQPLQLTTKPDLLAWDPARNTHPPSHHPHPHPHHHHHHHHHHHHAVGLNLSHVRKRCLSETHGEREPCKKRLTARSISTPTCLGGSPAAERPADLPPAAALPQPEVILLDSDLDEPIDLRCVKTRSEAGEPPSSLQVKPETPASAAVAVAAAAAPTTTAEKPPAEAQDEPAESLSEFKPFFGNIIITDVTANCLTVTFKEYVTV

[5] = target: T4, Chromobox protein homolog 6 (Homo sapiens, UniProt O95503); assay: Binding affinity to CBX6 (unknown origin) assessed as dissociation constant by fluorescence polarization analysis
T4 sequence (O95503 whole entry): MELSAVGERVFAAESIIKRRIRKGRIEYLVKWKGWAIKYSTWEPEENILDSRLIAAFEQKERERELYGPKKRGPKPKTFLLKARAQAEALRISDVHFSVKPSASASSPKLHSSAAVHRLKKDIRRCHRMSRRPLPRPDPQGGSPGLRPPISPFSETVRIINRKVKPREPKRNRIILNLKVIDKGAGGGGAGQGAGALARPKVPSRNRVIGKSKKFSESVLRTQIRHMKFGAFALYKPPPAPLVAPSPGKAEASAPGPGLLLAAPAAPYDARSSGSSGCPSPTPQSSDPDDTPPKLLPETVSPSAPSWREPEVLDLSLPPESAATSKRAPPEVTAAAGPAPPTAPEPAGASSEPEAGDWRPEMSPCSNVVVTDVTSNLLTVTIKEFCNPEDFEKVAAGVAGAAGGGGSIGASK

[6] = target: T5, Chromobox protein homolog 7 (Homo sapiens, UniProt O95931); assay: Binding affinity to CBX7 (unknown origin) assessed as dissociation constant by fluorescence polarization analysis
T5 sequence (O95931 whole entry): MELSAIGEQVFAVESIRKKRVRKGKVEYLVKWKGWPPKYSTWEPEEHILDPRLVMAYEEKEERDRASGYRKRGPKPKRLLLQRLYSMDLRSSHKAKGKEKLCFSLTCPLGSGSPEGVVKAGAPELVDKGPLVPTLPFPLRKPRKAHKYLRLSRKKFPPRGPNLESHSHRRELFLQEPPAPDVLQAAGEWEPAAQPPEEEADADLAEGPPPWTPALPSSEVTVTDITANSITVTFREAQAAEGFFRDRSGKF

Homo sapiens [7] = organism: Homo sapiens; assay: Selectivity ratio of Kd for CBX4 (unknown origin) to Kd for CBX8 (unknown origin)
Homo sapiens [8] = organism: Homo sapiens; assay: Selectivity ratio of Kd for CBX2 (unknown origin) to Kd for CBX8 (unknown origin)
Homo sapiens [9] = organism: Homo sapiens; assay: Selectivity ratio of Kd for CBX7 (unknown origin) to Kd for CBX6 (unknown origin)
Homo sapiens [10] = organism: Homo sapiens; assay: Selectivity ratio of Kd for CBX7 (unknown origin) to Kd for CBX8 (unknown origin)
Homo sapiens [11] = organism: Homo sapiens; assay: Selectivity ratio of Kd for CBX1 (unknown origin) to Kd for CBX8 (unknown origin)
[12] = target: T4, Chromobox protein homolog 6; assay: Inhibition of CBX6 (unknown origin) assessed as […] by competitive FP assay
[13] = target: T5, Chromobox protein homolog 7; assay: Inhibition of CBX7 (unknown origin) assessed as […] by competitive FP assay
Homo sapiens [14] = organism: Homo sapiens; assay: Selectivity ratio of IC50 for CBX6 (unknown origin) to IC50 for CBX7 (unknown origin)
[15] = target: T1, Chromobox protein homolog 8; assay: Inhibition of CBX8 (unknown origin) assessed as […] by competitive FP assay
Homo sapiens [16] = organism: Homo sapiens; assay: Selectivity ratio of IC50 for CBX8 (unknown origin) to IC50 for CBX7 (unknown origin)
TOV21G = assay: Decrease in cell viability in human TOV21G cells by MTT assay; type: cell-based
[17] = Drug uptake in nucleus of human PC3 cells by live cell imaging analysis; type: ADME, cell-based; conditions: pc-3
[18] = Drug uptake in nucleus of human TOV21G cells by live cell imaging analysis; type: ADME, cell-based
[19] = Drug uptake in cytoplasm of human PC3 cells by live cell imaging analysis; type: ADME, cell-based; conditions: pc-3
[20] = Drug uptake in human PC3 cells assessed as endosomal entrapment by measuring characteristic punctate dots in the cytoplasm at 10 uM by cell imaging analysis; type: ADME, cell-based; conditions: pc-3, 10 µM
[21] = Drug uptake in human TOV21G cells assessed as endosomal entrapment by measuring characteristic punctate dots in the cytoplasm at 10 uM by cell imaging analysis; type: ADME, cell-based
[22] = Drug uptake in cytoplasm of human TOV21G cells by live cell imaging analysis; type: ADME, cell-based

SMILES | Kd [1] [nM] | Kd [2] [µM] | Kd [3] [µM] | Kd [4] [µM] | Kd [5] [nM] | Kd [6] [nM] | IC50 [12] [µM] | IC50 [13] [nM] | IC50 [15] [µM] | Activity (TOV21G) | other results
CC(=O)N[C@@H](Cc1ccccc1)C(=O)N[C@@H](Cc1ccccc1)C(=O)N[C@@H](C)C(=O)N[C@@H](CC(C)C)C(=O)N[C@@H](CCCC[N+](C)(C)C)C(=O)N[C@@H](CO)C(=O)N[C@@H](CCC(=O)O)C(=O)N[C@@H](CCCCNC(=S)Nc1ccc(-c2c3ccc(=O)cc-3oc3cc(O)ccc23)c(C(=O)O)c1)C(N)=O (Ac-FFAL[Lys(Me3)]SEK(X1)-NH2) | 2600 | 110 | 18 | 15 | 1000 | 1500 |  |  |  |  | 
CC[C@H](NC(=O)[C@H](Cc1ccccc1)NC(=O)[C@H](Cc1ccccc1)NC(C)=O)C(=O)N[C@H](C(=O)N[C@@H](CCCC[N+](C)(C)C)C(=O)N[C@@H](CO)C(=O)N[C@@H](CCC(=O)O)C(=O)N[C@@H](CCCCNC(=S)Nc1ccc(-c2c3ccc(=O)cc-3oc3cc(O)ccc23)c(C(=O)O)c1)C(N)=O)C1CCCC1 (Ac-FF[Abu][Gly(cPent)][Lys(Me3)]SEK(X1)-NH2) | 700 | 99 | 10 | 11.3 | 400 | 1500 |  |  |  |  | Selectivity ratio (Homo sapiens [7]): 14 to 135; Selectivity ratio (Homo sapiens [8]): 14 to 135; Selectivity ratio (Homo sapiens [9]): 4; Selectivity ratio (Homo sapiens [10]): 2; Selectivity ratio (Homo sapiens [11]): 14 to 135
C[C@H](NC(=O)[C@H](Cc1ccccc1)NC(=O)c1ccc(Br)cc1)C(=O)N[C@@H](Cc1ccc(O)cc1)C(=O)N[C@@H](CCCC[N+](C)(C)C)C(=O)N[C@@H](CO)C(N)=O ({Benzoyl(4-Br)}-FAY[Lys(Me3)]S-NH2) |  |  |  |  |  |  | 16 | 2300 | 42 |  | Ratio IC50 (Homo sapiens [14]): 7; Ratio IC50 (Homo sapiens [16]): 18
C[C@H](NC(=O)[C@H](Cc1ccccc1)NC(=O)c1ccc(Br)cc1)C(=O)N[C@@H](Cc1ccc(O)cc1)C(=O)N[C@@H](CCCC[N+](C)(C)C)C(=O)N[C@@H](CO)C(=O)N[C@@H](CCC(=O)O)C(N)=O ({Benzoyl(4-Br)}-FAY[Lys(Me3)]SE-NH2) |  |  |  |  |  |  | 6 | 2000 | 12 | Non-Toxic | 
C[C@H](NC(=O)[C@H](Cc1ccccc1)NC(=O)c1ccc(Br)cc1)C(=O)N[C@@H](Cc1ccc(O)cc1)C(=O)N[C@@H](CCCC[N+](C)(C)C)C(=O)N[C@@H](CO)C(=O)N[C@@H](CCC(=O)O)C(=O)N[C@@H](CCCCNC(=S)Nc1ccc(-c2c3ccc(=O)cc-3oc3cc(O)ccc23)c(C(=O)O)c1)C(N)=O ({Benzoyl(4-Br)}-FAY[Lys(Me3)]SEK(X1)-NH2) | 624 | 4.75 |  |  | 47 | 12 |  |  |  | Toxic | Drug uptake [17]: Not Active; Drug uptake [18]: Not Active; Drug uptake [19]: Not Active; Drug uptake [20]: Active; Drug uptake [21]: Active; Drug uptake [22]: Not Active
